# How the values were obtained:
# [1] = test system: cerebral infarction; assay: Example 1: concomitant use of histidine and H3-receptor blocker, size of infarction after 2 h middle cerebral artery occlusion (TTC staining); type: in vivo, rat
# Text: These rats were anesthetized with a gas mixture of 2% halothane, 49% oxygen and 49% laughing gas, and kept under spontaneous breathing. Subsequently, a median incision was made in the neck of the rat placed on its back, and the right common carotid artery was exposed. […] The tip of the nylon thread was placed 18 mm from the bifurcation. After suture of the incision of the skin, the rats were allowed to recover from anesthesia. During surgery, an electronic thermometer was inserted into the temporal muscle, and the body temperature was maintained at 37.0±0.1° C. with a lamp. […] Five minutes before reperfusion of blood flow, the rats were anesthetized again. […] Histidine was first dissolved in physiological saline adjusted to pH 4.0 with hydrochloric acid, and then the pH was resumed to 6.0 with sodium hydroxide. Further, 5 mg/kg of thioperamide was intraperitoneally injected to each thioperamide administration group. After recovery from anesthesia, the rats were allowed to access food and water freely. Twenty-four hours after recovery of blood flow, sodium pentobarbital was intraperitoneally administered to the rats for anesthesia. Subsequently, the brain was perfused with physiological saline, and the rat was decapitated. The brain was quickly dissected, and rinsed in physiological saline. The brain was sliced coronally between the optic chiasm and the caucal edge of the mammillary body at a thickness of 2 mm. […] As a result, triphenyltetrazolium chloride was reduced due to the action of dehydrogenase present in viable cells, and the tissue was stained in dark red. On the other hand, the dead tissue in the infarcted area was not stained. These brain slices were preserved in phosphate-buffered formalin overnight. Then, an investigator who was unaware of histidine administration measured the size of infarction using computer-aided planimetry.
# [2] = test system: pyramidal neurons in the hippocampal CA-1 region; settings: administration prior to transient forebrain ischemia, rat; cited from earlier work
# [3] = test system: neuronal death; settings: cited from earlier work
# [4] = test system: cerebral infarction; assay: Example 2: concomitant use of histidine and HMT inhibitor, size of infarction after middle cerebral artery occlusion
# Experimental: Twenty-five male Wistar rats weighing about 300 g were divided into 4 groups consisting of histidine 1000 mg/kg administration group, histidine 200 mg/kg+metoprine 10 mg/kg administration group, histidine 500 mg/kg+metoprine 10 mg/kg administration group, and histidine 1000 mg/kg+metoprine 10 mg/kg administration group.
# The root of the right middle cerebral artery of these rats was occluded and blood flow was recovered as shown in the Example 1. Then, 200 mg/kg, 500 mg/kg or 1000 mg/kg of histidine was intraperitoneally administered to the rats, and 10 mg/kg of metoprine was further administered to the metoprine administration groups, as shown in the Example 1.
# The samples were prepared by treating each rat as shown in the Example 1 and the size of infarction was measured. The obtained size of cerebral infarction was subjected to analysis of variance and the Bonferroni test.
# [5] = test system: liver function; settings: patients who received the agent; cited from earlier work
# [6] = histidine 200 mg/kg i.p. alone, single dose after reperfusion, 24 h
# [7] = histidine 500 mg/kg i.p. alone after reperfusion, 24 h
# [8] = histidine 1000 mg/kg i.p. alone after reperfusion, 24 h
# [9] = Example 2, histidine 1000 mg/kg i.p. alone after reperfusion, 24 h
compound,measurement,setting,value
"N[C@@H](Cc1c[nH]cn1)C(=O)O [Histidine, histidine]","size of cerebral infarction, Striatum","[1]; histidine 200 mg/kg i.p. alone, single dose after reperfusion (2 h MCA occlusion), 24 h after recovery of blood flow",35.3 ± 21.6 mm^3
same,"size of cerebral infarction, Cerebral cortex",[1]; [6],106.3 ± 63.0 mm^3
same,"size of cerebral infarction, Total",[1]; [6],141.6 ± 83.1 mm^3
same,"size of cerebral infarction, Cerebral cortex",[1]; [7],86.0 ± 49.9 mm^3
same,"size of cerebral infarction, Striatum",[1]; [7],30.5 ± 23.3 mm^3
same,"size of cerebral infarction, Total",[1]; [7],116.5 ± 69.7 mm^3
same,"size of cerebral infarction, Cerebral cortex",[1]; [8],114.2 ± 33.9 mm^3
same,"size of cerebral infarction, Striatum",[1]; [8],47.8 ± 16.3 mm^3
same,"size of cerebral infarction, Total",[1]; [8],162.0 ± 45.8 mm^3
same,suppressive effects on cerebral infarction,"[1]; histidine alone in a single dose after ischemia (200, 500, 1000 mg/kg)",not found
same,programmed death of neurons after transient ischemia,[2],depressed
same,neuronal death 7 days after ischemia caused by apoptosis,"[3]; histidine 4 times: shortly, 6, 24 and 48 hours after 15 minutes of transient ischemia, rats",depressed
same,suppressive effects on cerebral infarction,"[4]; 1000 mg/kg of histidine in a single dose after ischemia, without metoprine",not found
same,"size of cerebral infarction, Cerebral cortex",[4]; [9],87.8 ± 42.5 mm^3
same,"size of cerebral infarction, Striatum",[4]; [9],57.2 ± 20.2 mm^3
same,"size of cerebral infarction, Total",[4]; [9],145.0 ± 59.2 mm^3
CC1=NN(c2ccccc2)C(=O)C1 [edaravone],patients with abnormal values in laboratory tests on the liver function,[5],21.4%
COc1ccc(CN(CCN(C)C)c2ccccn2)cc1 [mepyramine],alleviation of nerve cell death by histidine in presence of histamine receptor blocker,"[3]; co-administered with histidine, ranitidine used concomitantly with mepyramine",slightly suppressed

# Source: US20080039500A1, “Cerebral Infarction Suppressant” (priority 2004, published 2008)
